{
  "source": "PubChem BioAssay AID504731",
  "about": "(National Center for Advancing Translational Sciences (NCATS), 2011)",
  "test_system": "mouse liver microsomes, T1/2, LC-MS/MS",
  "experiment": "Allosteric/Competitive Inhibitors of Caspase 1: Metabolic Stability Profiling",
  "conditions": "at 1 µM; stronger effect = higher value",
  "from_the_text": "The caspases (Cysteine Aspartyl Protease) comprise a related family of 14 dimeric proteases that are critical mediators of apoptosis (programmed cell death) and inflammation. The caspases represent an important class of drug targets for stroke, ischemia, cancer and inflammatory diseases. The goal of this project was to identify compounds that act as selective inhibitors caspase 1. To identify both allosteric and competitive inhibitors of caspase 1, the enzyme was screened using a pro-fluorescent substrate in a qHTS format. […] Mouse liver microsomes are created through broken up endoplasmic reticulum from mouse liver. These liver microsomes contain many drug metabolizing enzymes, such as Cytochome P-450s and flavin-containing monooxygenases. Because metabolism is major way of drug clearance, this is an important result. H Chemical Genomics Center [NCGC] NIH Molecular Libraries Probe Production Centers Network [MLPCN] MLSCN Grant: 1 X01 MH078950-01 PI Name: Dr. James Wells\n1uM of compound in incubated in mouse liver microsome; the reference compound is ketanserin. Compounds are incubated at 37 degrees C for different time periods: 0, 5, 15, 30, 45, and 60 minutes. Samples are analyzed with LC-MS/MS.",
  "data": [
    {"compound": "CC(C)(C)[C@H](NC(=O)c1ccc(N)c(Cl)c1)C(=O)N1CCC[C@H]1C(=O)N[C@H](C#N)CC(=O)O", "values": [
      {"measurement": "half-life", "value": 3.43, "unit": "h"}
    ]}
  ]
}
